Test results: US9464075B2 (priority 2008, dated 2016)
Like-named read-outs stand apart in the source and are kept apart here.

Legend:
[1] = molecular target: A/M2 channels (Influenza virus A/Udorn/72 A/M2 protein) (Influenza A virus, UniProt P0DOF5); assay: cell-based; details: for activity at 100 µM: read-out: AM2 channel activity after 100 μM compound inhibition
[2] = molecular target: A/M2TM (22-46) (Influenza A virus, UniProt P0DOF5); assay: biochemical; type: binding
[3] = molecular target: AM2 (Influenza A virus, UniProt P0DOF5); assay: cell-based; details: read-out: AM2 % inhibition at 100 μM
Sequence of AM2 (P0DOF5 whole entry): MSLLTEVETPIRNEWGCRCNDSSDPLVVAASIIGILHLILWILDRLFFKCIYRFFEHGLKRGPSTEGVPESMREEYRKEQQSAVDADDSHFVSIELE

Sequence of A/M2 channels (Influenza virus A/Udorn/72 A/M2 protein) (P0DOF5 whole entry, looked up): as the sequence (P0DOF5 whole entry) above
Sequence of A/M2TM (22-46) (P0DOF5 22-46 limits assumed): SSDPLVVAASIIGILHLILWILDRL

NC12CC3CC(CC(C3)C1)C2 [Amantadine, reference compound]
activity at 100 µM [1]: 6%

C1CCC2(CC1)CCN(C1=NCCN1)CC2 [BL-1743, 3-(4,5-Dihydro-1H-imidazol-2-yl)-3-aza-spiro[5.5]undecane, reference compound]
Kd [2]: 194 µM | IC50 [1]: 45.3 ± 3.92 µM | activity at 100 µM [1]: 25%

Cl.NC1CCC2(CCCCC2)CC1 [Compound 8]
AM2 channel activity after 100 μM compound inhibition [1]: 11%

c1nc(NC2CCC3(CCCCC3)CC2)n[nH]1 [Compound 11, Spiro[5.5]undec-3-yl-(1H-[1,2,4]triazol-3-yl)-amine]
activity at 100 µM [1]: 25%

NCCNC1CCC2(CCCCC2)CC1 [Compound 12, N^1-Spiro[5.5]undec-3-yl-ethane-1,2-diamine]
activity at 100 µM [1]: 100%

NCCCNC1CCC2(CCCCC2)CC1 [Compound 13, N^1-Spiro[5.5]undec-3-yl-propane-1,3-diamine]
activity at 100 µM [1]: 100%

c1nc(CNCCNC2CCC3(CCCCC3)CC2)c[nH]1 [Compound 14, N-(1H-Imidazol-4-ylmethyl)-N′-spiro[5.5]undec-3-yl-ethane-1,2-diamine]
activity at 100 µM [1]: 91%

OC1(c2cnc[nH]2)CCC2(CCCCC2)CC1 [Compound 15]
activity at 100 µM [1]: 40%

OC(c1c[nH]cn1)C1CCC2(CCCCC2)CC1 (stereo not shown) [Compound 18]
activity at 100 µM [1]: 30%

C1CCC2(CC1)CCNCC2 [Compound 20, 3-Aza-spiro[5.5]undecane, reference compound]
Kd ([2]; read-out: Kd): 12.9 µM | IC50 [1]: 0.92 ± 0.11 µM | activity at 100 µM [1]: 5%

NN1C(=O)CC2(CCCCC2)CC1=O [Compound 28, 3-Amino-3-aza-spiro[5.5]undecane-2,4-dione]
inhibition at 100 µM [3]: 29%

NN1CCC2(CCCCC2)CC1 [Compound 29, 3-Aza-spiro[5.5]undec-3-yl-ammonium chloride]
inhibition at 100 µM [3]: 86%

C1CCC2(CC1)CCCNCC2 [Compound 30, 9-Azonia-spiro[5.6]dodecane chloride]
inhibition at 100 µM [3]: 94%

Cl.NNC1CCC2(CCCCC2)CC1 [Compound 31, N′-Spiro[5.5]undec-3-yl-hydrazinium chloride]
inhibition at 100 µM [3]: 78.8%

CCC1(CC)CCc2nc(N)sc2C1 [Compound 32, 6,6-Diethyl-4,5,6,7-tetrahydro-benzothiazol-2-ylamine]
inhibition at 100 µM [3]: 32%

Cl.NC1CSC2(CCCCC2)SC1 [Compound 33, 1,5-Dithia-spiro[5.5]undec-3-yl-ammonium chloride]
inhibition at 100 µM [3]: 84.2%

NC1CSC2(CCCCCC2)SC1 [Compound 34, 1,5-Dithia-spiro[5.6]dodec-3-yl-ammonium chloride]
inhibition at 100 µM [3]: 84.1%

N=C(N)NC1CCC2(CCCCC2)CC1 [Compound 35]
inhibition at 100 µM [3]: 92%
